Molecular target: T1, androgen receptor in MDA-MB453-MMTV clone 54-19 cells (Homo sapiens, UniProt P10275)
T1 sequence (P10275 1-920 Q868H): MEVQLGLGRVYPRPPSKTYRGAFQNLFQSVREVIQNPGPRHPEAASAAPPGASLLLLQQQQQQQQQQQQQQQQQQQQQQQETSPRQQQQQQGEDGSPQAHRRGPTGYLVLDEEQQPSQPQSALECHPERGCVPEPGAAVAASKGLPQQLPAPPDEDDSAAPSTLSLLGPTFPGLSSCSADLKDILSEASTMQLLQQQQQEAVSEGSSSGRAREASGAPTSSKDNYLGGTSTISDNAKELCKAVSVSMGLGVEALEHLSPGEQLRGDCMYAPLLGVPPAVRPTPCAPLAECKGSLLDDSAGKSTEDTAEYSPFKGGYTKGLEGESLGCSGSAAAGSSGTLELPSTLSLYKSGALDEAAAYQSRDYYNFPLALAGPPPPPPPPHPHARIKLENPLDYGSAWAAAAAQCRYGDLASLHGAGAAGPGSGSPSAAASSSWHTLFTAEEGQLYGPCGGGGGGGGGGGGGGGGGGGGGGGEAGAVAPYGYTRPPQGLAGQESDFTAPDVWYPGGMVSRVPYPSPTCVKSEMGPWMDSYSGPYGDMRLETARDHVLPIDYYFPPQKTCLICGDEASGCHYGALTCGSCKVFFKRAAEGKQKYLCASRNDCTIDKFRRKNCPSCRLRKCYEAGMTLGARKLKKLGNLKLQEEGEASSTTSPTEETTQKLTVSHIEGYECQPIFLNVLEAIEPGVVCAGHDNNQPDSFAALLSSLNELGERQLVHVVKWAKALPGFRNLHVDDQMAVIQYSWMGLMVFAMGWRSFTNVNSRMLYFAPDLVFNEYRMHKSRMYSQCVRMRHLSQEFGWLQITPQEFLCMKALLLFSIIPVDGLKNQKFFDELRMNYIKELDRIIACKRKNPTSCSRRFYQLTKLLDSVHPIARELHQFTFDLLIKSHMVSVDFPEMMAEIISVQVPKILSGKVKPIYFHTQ
Assay: AR antagonist cell assay (MMTV-luciferase reporter, 100 pM DHT)
Format: cell-based
Settings: read-out: AR Cell IC50; MDA-MB453-MMTV clone 54-19, inhibition of 100 pM DHT induced luciferase, 17 hr; mean of multiple tests
Method: The compounds ability to antagonize the effects of androgen on the androgen receptor were determined in a whole cell assay as described immediately below.
Experimental Procedure for AR Antagonist Cell Assay
Cell line: MDA-MB453-MMTV clone 54-19. This cell line is a stable transfected cell line with MDA-MB453 cell background (a human breast tumor cell line expressing androgen receptor). A MMTV minimal promoter containing ARE was first cloned in front of a firefly luciferase reporter gene. Then the cascade was cloned into transfection vector pUV120puro. Electroporation method was used for transfecting MDA-MB-453 cell. Puromycin resistant stable cell line was selected. Cell Culture Media and Reagents:
Culture medium: DMEM (high glucose, Gibco cat #: 11960-044), 10% FBS, and 1% L-glutamine
Plating medium: DMEM (phenol red free), 10% charcoal treated HyClone serum, 1% L-glutamine
Assay medium: DMEM (phenol red free), 1% charcoal treated HyClone serum, 1% L-glutamine, and 1% penicillin/streptomycin
3X luciferase buffer: 2% beta-mercaptoethanol, 0.6% ATP, 0.0135% luciferine in cell lysis buffer
• 1. Cells are maintained in culture medium, splitting cells when they reach 80-90% confluence • 2. To test compounds, 10,000 cells/well are plated to opaque 96 cell culture plate in 100 ul/well plating medium, culture for overnight at 37° C. in cell culture incubator • 3. Carefully remove plating medium, then add 80 ul/well of pre-warmed assay medium, add 10 ul/well testing compound (final concentration at) 1000 nM, 200 nM, 40 nM, 8 nM, 1.6 nM, and 0.32 nM), incubate at 37° C. for 30 minutes • 4. Add 10 ul/well freshly prepared DHT (final concentration at 100 pM) to each well, incubate at 37° C. for 17 hr (overnight) • 5. Add 50 ul/well 3X luciferase buffer, incubate at room temperature for 5 minutes, then count on Luminometer
The fold induction over background by 100 pM DHT in the absence of testing compounds is standardized as 100% and experimental result is expressed as percentage of inhibition by testing compounds.
The results are reported as the mean of multiple tests as described below (the numbers of tests are indicated in the footnote). N.D. denotes that the compound was not tested.

Row | Structure (SMILES) | IC50
1 | N#Cc1ccc(OCCCCCOc2ccc(C#N)c(C(F)(F)F)c2)cc1C(F)(F)F [Example 24] | 64 nM
2 | COCC(COc1ccccc1)Oc1ccc(C#N)c(C(F)(F)F)c1 (stereo not drawn) [Example 27, 4-(1-Methoxymethyl-2-phenoxy-ethoxy)-2-trifluoromethyl-benzonitrile] | 19 nM
3 | N#Cc1ccc(OC(CO)COc2ccccc2)cc1C(F)(F)F (stereo not drawn) [Example 28, 4-(1-Hydroxymethyl-2-phenoxy-ethoxy)-2-trifluoromethyl-benzonitrile] | 69 nM

Reference: patent publication US7473711B2, “Androgen modulators” (Pfizer Inc., priority 2004, dated 2009)
